# Measured values reported in patent US20250154138A1, “Small Molecule IL-17A Modulators” (BeiGene, Ltd., priority 2022, published 2025).
# How the values were obtained:
# [1] = tested on: IL-17-induced GROα secretion from HT-29 cells; assay: GROα release assay in human colorectal adenocarcinoma epithelial cell (HT-29, ELISA); type: cell-based; conditions: Homo sapiens, HT-29, 48 h, 10 ng/mL IL-17A, highest concentration 10 μM, read-out: Cellular assay HT29 cell/CXCL1 IC50
# How it was run: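 HT-29 cells were exposed 48 h at 37°C to IL-17A (final 10 ng/mL) preincubated 15 min with compound (4-fold dilutions, top 10 μM). Secreted GROα was quantified by ELISA against a standard curve, and IC50 obtained by four-parameter fitting.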
# [2] = molecular target: human IL-17A / human IL-17RA (Homo sapiens (Human), UniProt Q16552); assay: Human IL-17A biochemical assay (HTRF, blocking of IL-17A binding to IL-17RA); conditions: 0.4 nM IL-17A, 0.3 nM IL-17RA, max compound concentration 10 uM
# How it was run: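 HTRF competition: 0.4 nM recombinant human IL-17A pre-incubated 3 h at room temperature with compound (top 10 uM, 2.7-fold, 10 points) in HEPES pH 7.5 buffer, then 0.3 nM IL-17RA added for 1 h, then anti-6His-Tb/anti-human IgG-XL665 detection for 1 h.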
# Sequence of human IL-17A / human IL-17RA (Q16552 24-155): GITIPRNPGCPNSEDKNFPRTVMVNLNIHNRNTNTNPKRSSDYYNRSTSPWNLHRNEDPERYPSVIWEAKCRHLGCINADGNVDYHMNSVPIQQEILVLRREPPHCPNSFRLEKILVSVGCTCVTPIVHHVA
compound,measurement,setting,value
"CC(C)[C@@H]1CN(C2(C(=O)NCc3ccccn3)Cc3ccc(NC(=O)[C@@H](NC(=O)c4ccnn4C)C4CCCCC4)cc3C2)C(=O)N1 (stereo partly drawn) [Example 163, N-((1S)-1-cyclohexyl-2-((2-((R)-4-isopropyl-2-oxoimidazolidin-1-yl)-2-((pyridin-2-ylmethyl)carbamoyl)-2,3-dihydro-1H-inden-5-yl)amino)-2-oxoethyl)-1-methyl-1H-pyrazole-5-carboxamide]",IC50,[1],38.8 nM
same,IC50,[2],19 nM
"CNC(=O)C1(N2CC(C(C)C)NC2=O)Cc2cc3nc([C@@H](NC(=O)c4nonc4C)C4CCCCC4)[nH]c3cc2C1 (stereo partly drawn) [Example 29, N-((1S)-cyclohexyl(6-(4-isopropyl-2-oxoimidazolidin-1-yl)-6-(methylcarbamoyl)-1,5,6,7-tetrahydroindeno[5,6-d]imidazol-2-yl)methyl)-4-methyl-1,2,5-oxadiazole-3-carboxamide]",IC50,[1],146 nM
same,IC50,[2],160 nM
"CC(C)n1nccc1C(=O)N[C@H](C(=O)Nc1ccc2c(c1)CC(c1nc3cccc(C(F)(F)F)c3[nH]1)(N1CC3(CC3)CNC1=O)C2)C(C1CC1)C1CC1 (stereo partly drawn) [Example 198, N-((2S)-1,1-dicyclopropyl-3-oxo-3-((2-(6-oxo-5,7-diazaspiro[2.5]octan-5-yl)-2-(7-(trifluoromethyl)-1H-benzo[d]imidazol-2-yl)-2,3-dihydro-1H-inden-5-yl)amino)propan-2-yl)-1-isopropyl-1H-pyrazole-5-carboxamide]",IC50,[1],316 nM
same,IC50,[2],1130 nM
"CC(C)n1nccc1C(=O)N[C@H](C(=O)Nc1ccc2c(c1)OC(CN1C[C@@H](C(F)(F)F)NC1=O)C2)C(C1CC1)C1CC1 (stereo partly drawn) [Example 256, N-((2S)-1,1-dicyclopropyl-3-oxo-3-((2-(((S)-2-oxo-4-(trifluoromethyl)imidazolidin-1-yl)methyl)-2,3-dihydrobenzofuran-6-yl)amino)propan-2-yl)-1-isopropyl-1H-pyrazole-5-carboxamide]",IC50,[1],82 nM
same,IC50,[2],50.2 nM
"Cc1nonc1C(=O)N[C@H](C(=O)Nc1ccc2c(c1)CC(C#N)(N1CC3(CC3)CNC1=O)C2)C1CCC(F)(F)CC1 (stereo partly drawn) [Example 210, N-((1S)-2-((2-cyano-2-(6-oxo-5,7-diazaspiro[2.5]octan-5-yl)-2,3-dihydro-1H-inden-5-yl)amino)-1-(4,4-difluorocyclohexyl)-2-oxoethyl)-4-methyl-1,2,5-oxadiazole-3-carboxamide]",IC50,[1],294 nM
same,IC50,[2],91.6 nM
"Cc1nonc1C(=O)NC(C(=O)Nc1ccc2c(c1)CC(N1C[C@@H](C(F)(F)F)NC1=O)C2)C1CCc2cc(Cl)ccc2C1 (stereo partly drawn) [Example 208, N-(1-(6-chloro-1,2,3,4-tetrahydronaphthalen-2-yl)-2-oxo-2-((2-((S)-2-oxo-4-(trifluoromethyl)imidazolidin-1-yl)-2,3-dihydro-1H-inden-5-yl)amino)ethyl)-4-methyl-1,2,5-oxadiazole-3-carboxamide]",IC50,[1],2170 nM
same,IC50,[2],718 nM
"CNC(=O)C1(N2CC3(CCC3)CNC2=O)Cc2ccc(NC(=O)[C@@H](NC(=O)c3nonc3C)C3CCCCC3)cc2C1 (stereo partly drawn) [Example 110, N-((1S)-1-cyclohexyl-2-((2-(methylcarbamoyl)-2-(7-oxo-6,8-diazaspiro[3.5]nonan-6-yl)-2,3-dihydro-1H-inden-5-yl)amino)-2-oxoethyl)-4-methyl-1,2,5-oxadiazole-3-carboxamide]",IC50,[1],76.5 nM
same,IC50,[2],15 nM
"CCn1nccc1C(=O)N[C@H](C(=O)Nc1ccc2c(c1)CC(C(=O)NC)(N1CC3(CC3)CNC1=O)C2)C1CCCCC1 (stereo partly drawn) [Example 154, N-((1S)-1-cyclohexyl-2-((2-(methylcarbamoyl)-2-(6-oxo-5,7-diazaspiro[2.5]octan-5-yl)-2,3-dihydro-1H-inden-5-yl)amino)-2-oxoethyl)-1-ethyl-1H-pyrazole-5-carboxamide]",IC50,[1],71.4 nM
same,IC50,[2],28 nM
"Cn1nccc1C(=O)N[C@H](C(=O)Nc1ccc2c(c1)CC(C(=O)NCc1ccccc1F)(N1CC3(CC3)CNC1=O)C2)C1CCCCC1 (stereo partly drawn) [Example 175, N-((1S)-1-cyclohexyl-2-((2-((2-fluorobenzyl)carbamoyl)-2-(6-oxo-5,7-diazaspiro[2.5]octan-5-yl)-2,3-dihydro-1H-inden-5-yl)amino)-2-oxoethyl)-1-methyl-1H-pyrazole-5-carboxamide]",IC50,[1],10.1 nM
same,IC50,[2],22.4 nM
"CC(C)[C@@H]1CN(C2(C(=O)N3CCC(O)C3)Cc3ccc(NC(=O)[C@@H](NC(=O)c4ccnn4C)C4CCCCC4)cc3C2)C(=O)N1 (stereo partly drawn) [Example 136, N-((1S)-1-cyclohexyl-2-((2-(3-hydroxypyrrolidine-1-carbonyl)-2-((R)-4-isopropyl-2-oxoimidazolidin-1-yl)-2,3-dihydro-1H-inden-5-yl)amino)-2-oxoethyl)-1-methyl-1H-pyrazole-5-carboxamide]",IC50,[1],279 nM
same,IC50,[2],108 nM
"COCC1(N2CC(C(F)(F)F)NC2=O)Cc2ccc(NC(=O)[C@@H](NC(=O)c3nonc3C)C(C3CC3)C3CC3)cc2C1 (stereo partly drawn) [Example 225, N-((2S)-1,1-dicyclopropyl-3-((2-(methoxymethyl)-2-(2-oxo-4-(trifluoromethyl)imidazolidin-1-yl)-2,3-dihydro-1H-inden-5-yl)amino)-3-oxopropan-2-yl)-4-methyl-1,2,5-oxadiazole-3-carboxamide]",IC50,[1],2320 nM
same,IC50,[2],1270 nM
"Cc1nonc1C(=O)N[C@H](C(=O)Nc1ccc2c(c1)CC(C(=O)Nc1ccccc1)(N1C[C@@H](C(C)C)NC1=O)C2)C1CCC(F)(F)CC1 (stereo partly drawn) [Example 242, N-((1S)-1-(4,4-difluorocyclohexyl)-2-((2-((R)-4-isopropyl-2-oxoimidazolidin-1-yl)-2-(phenylcarbamoyl)-2,3-dihydro-1H-inden-5-yl)amino)-2-oxoethyl)-4-methyl-1,2,5-oxadiazole-3-carboxamide]",IC50,[1],652 nM
same,IC50,[2],250 nM
"CNC(=O)C1(N2CC3(CC3)CNC2=O)Cc2ccc(NC(=O)[C@@H](NC(=O)c3nonc3C)C3CCC(F)(F)CC3)cc2C1 (stereo partly drawn) [Example 138, N-((1S)-1-(4,4-difluorocyclohexyl)-2-((2-(methylcarbamoyl)-2-(6-oxo-5,7-diazaspiro[2.5]octan-5-yl)-2,3-dihydro-1H-inden-5-yl)amino)-2-oxoethyl)-4-methyl-1,2,5-oxadiazole-3-carboxamide]",IC50,[1],101 nM
same,IC50,[2],53.1 nM
"CC#CCC1CN(C2(C(=O)NC)Cc3ccc(NC(=O)[C@@H](NC(=O)c4ccnn4C)C4CCCCC4)cc3C2)C(=O)N1 (stereo partly drawn) [Example 106, N-((1S)-2-((2-(4-(but-2-yn-1-yl)-2-oxoimidazolidin-1-yl)-2-(methylcarbamoyl)-2,3-dihydro-1H-inden-5-yl)amino)-1-cyclohexyl-2-oxoethyl)-1-methyl-1H-pyrazole-5-carboxamide]",IC50,[1],202 nM
same,IC50,[2],48 nM
"CNC(=O)C1(N2CC(C(F)(F)F)NC2=O)Cc2ccc(NC(=O)[C@@H](NC(=O)c3ccnn3C)C3CCCCC3)cc2C1 (stereo partly drawn) [Example 202, N-((1S)-1-cyclohexyl-2-((2-(methylcarbamoyl)-2-(2-oxo-4-(trifluoromethyl)imidazolidin-1-yl)-2,3-dihydro-1H-inden-5-yl)amino)-2-oxoethyl)-1-methyl-1H-pyrazole-5-carboxamide]",IC50,[1],519 nM
same,IC50,[2],346 nM
"Cc1nonc1C(=O)N[C@H](C(=O)Nc1ccc2c(c1)CC(C(=O)NC1CC1(F)F)(N1C[C@@H](C(C)C)NC1=O)C2)C(C1CC1)C1CC1 (stereo partly drawn) [Example 273, N-((2S)-1,1-dicyclopropyl-3-((2-((2,2-difluorocyclopropyl)carbamoyl)-2-((R)-4-isopropyl-2-oxoimidazolidin-1-yl)-2,3-dihydro-1H-inden-5-yl)amino)-3-oxopropan-2-yl)-4-methyl-1,2,5-oxadiazole-3-carboxamide]",IC50,[1],66.1 nM
same,IC50,[2],34.7 nM
"Cc1nonc1C(=O)N[C@H](C(=O)Nc1ccc2c(c1)CC(C(=O)NCc1cccnn1)(N1CC3(CC3)CNC1=O)C2)C1CCC(F)(F)CC1 (stereo partly drawn) [Example 228, N-((1S)-1-(4,4-difluorocyclohexyl)-2-oxo-2-((2-(6-oxo-5,7-diazaspiro[2.5]octan-5-yl)-2-((pyridazin-3-ylmethyl)carbamoyl)-2,3-dihydro-1H-inden-5-yl)amino)ethyl)-4-methyl-1,2,5-oxadiazole-3-carboxamide]",IC50,[1],49.1 nM
same,IC50,[2],15.9 nM
"COc1ccccc1NC(=O)C1(N2C[C@@H](C(C)C)NC2=O)Cc2ccc(NC(=O)[C@@H](NC(=O)c3nonc3C)C(C3CC3)C3CC3)cc2C1 (stereo partly drawn) [Example 254, N-((2S)-1,1-dicyclopropyl-3-((2-((R)-4-isopropyl-2-oxoimidazolidin-1-yl)-2-((2-methoxyphenyl)carbamoyl)-2,3-dihydro-1H-inden-5-yl)amino)-3-oxopropan-2-yl)-4-methyl-1,2,5-oxadiazole-3-carboxamide]",IC50,[1],318 nM
same,IC50,[2],178 nM
"CNC(=O)C1(N2C[C@@H](C(C)C)NC2=O)Cc2ccc(NC(=O)C(NC(=O)c3ccnn3C)C3CCC(C)(C)CC3)cc2C1 (stereo partly drawn) [Example 87, N-(1-(4,4-dimethylcyclohexyl)-2-((2-((R)-4-isopropyl-2-oxoimidazolidin-1-yl)-2-(methylcarbamoyl)-2,3-dihydro-1H-inden-5-yl)amino)-2-oxoethyl)-1-methyl-1H-pyrazole-5-carboxamide]",IC50,[1],352 nM
same,IC50,[2],36 nM
"Cc1nonc1C(=O)N[C@H](C(=O)Nc1ccc2c(c1)CC(C(=O)NC1CCC(F)(F)C1)(N1CC3(CC3)CNC1=O)C2)C1CCC(F)(F)CC1 (stereo partly drawn) [Example 190, N-((1S)-1-(4,4-difluorocyclohexyl)-2-((2-((3,3-difluorocyclopentyl)carbamoyl)-2-(6-oxo-5,7-diazaspiro[2.5]octan-5-yl)-2,3-dihydro-1H-inden-5-yl)amino)-2-oxoethyl)-4-methyl-1,2,5-oxadiazole-3-carboxamide]",IC50,[1],139 nM
same,IC50,[2],87.1 nM
